How the values were obtained:
[1] = system: style-specific S RNase of Fuji apple; test: Inhibition of the activity of a style-specific S RNase by the agents; format: biochemical; conditions: for OD (2.0 mM): optical density at 260 nm (A260), agent 2.0 mM, no treatment 1.10; for inhibiting effect for a style-specific S RNase: enzyme assay, result in words
Method: Inhibition of S RNase activity by an agent of the present invention was measured as follows: The standard solution of 500 μL of 10 mM sodium phosphate (pH 7.0) with an agent (2.0 mM), and 500 μL of torula yeast rRNA (5 mg/mL) was pre-incubated for 10 min at 37° C. To the substrate solution, the 20 μL of the style-specific S RNase (200 ng) of Fuji apple was added, then the solution was incubated for 30 min at 37° C. A fraction of 200 μL was collected and 40 μL of stop buffer (ice-cold 25% HCIO4, 0.75% uranyl acetate) was added, then mixed and centrifuged at 12,000 rpm for 5 min. And 50 μL of the supernatant was diluted with 950 μL of dd H2O, then the solution was centrifuged and measured the optical density at 260 nm (A260) (Singh A. et al., Plant Physilolgy, 96: 61-68,1991).

[2] = system: Hongro apple; test: Breakdown of the self-incompatibility in Hongro apple (self-pollination rate, field); format: in vivo; conditions: 25 days after the treatment
Method: In the field application experiment, Hongro apple (the Rosaceae) which has a very low self-pollination rate (<5%) was isolated single-genetically by covering up whole plants with a fine-meshed net to exclude any pollinating insects. The agent of the present invention was treated enough to get-wet flowers at various concentrations with a micro-spray at 9:00-11:00 AM. The target of the agent was the first-blooming primary apple flower. The self-pollination rate was investigated 25 days after the treatment and compared with no treatment and artificial cross-pollination.

OD (2.0 mM) [1]	Compound	also measured
0.72	CCCOC(C)C(=O)[O-].CCCOC(C)C(=O)[O-].[Cu+2] (stereo not shown) [Cu(II) 2-propoxypropionate]	–
0.72	COC(C)C(=O)[O-].COC(C)C(=O)[O-].[Cu+2] (stereo not shown) [Cu(II) 2-methoxypropionate]	–
0.72	C[C@H](O)C(=O)[O-].C[C@H](O)C(=O)[O-].[Cu+2] [Cu(II) L-lactate]	–
0.70	C=C(C)C(=O)[O-].C=C(C)C(=O)[O-].[Zn+2] [Zn(II) metacrylate]	–
0.75	CCCOCC(=O)[O-].CCCOCC(=O)[O-].[Zn+2] [Zn(II) propoxyacetate]	–
0.73	CCCOCC(=O)[O-].CCCOCC(=O)[O-].[Cu+2] [Cu(II) propoxyacetate]	–
0.70	CC(=O)[O-].CC(=O)[O-].[Cu+2] [Cu(II) Acetate]	–
0.73	CCOCC(=O)[O-].CCOCC(=O)[O-].[Zn+2] [Zn(II) ethoxyacetate]	–
0.71	CC(=O)[O-].CC(=O)[O-].[Zn+2] [Zn(II) Acetate]	–
0.73	COC(C)C(=O)[O-].COC(C)C(=O)[O-].[Zn+2] (stereo not shown) [Zn(II) 2-methoxypropionate]	–
0.68	CCCC(=O)[O-].CCCC(=O)[O-].[Zn+2] [Zn(II) Butyrate]	–
0.72	CCOCC(=O)[O-].CCOCC(=O)[O-].[Cu+2] [Cu(II) ethoxyacetate]	–
0.72	CCCOC(C)C(=O)[O-].CCCOC(C)C(=O)[O-].[Zn+2] (stereo not shown) [Zn(II) 2-propoxypropionate]	–
0.69	C=CC(=O)[O-].C=CC(=O)[O-].[Cu+2] [Cu(II) Acrylate]	–
0.69	CCCC(=O)[O-].CCCC(=O)[O-].[Cu+2] [Cu(II) Butyrate]	–
0.72	COCC(=O)[O-].COCC(=O)[O-].[Cu+2] [Cu(II) methoxyacetate]	–
0.71	COCC(=O)[O-].COCC(=O)[O-].[Zn+2] [Zn(II) methoxyacetate]	–

Further lines, the compound ahead of its results:

Compound	OD (2.0 mM) [1]	also measured
COCCOCCOc1ccc(S(=O)(=O)[O-])cc1.COCCOCCOc1ccc(S(=O)(=O)[O-])cc1.[Zn+2] [Zn(II) 4-{2-(2-methoxyethoxy)ethoxy}benzene sulfonate]	0.68	–
COCCOCCOCCOCC(=O)[O-].COCCOCCOCCOCC(=O)[O-].[Zn+2] [Zn(II) 2-{2-(2-methoxyethoxy)ethoxy} ethoxyacetate]	0.67	–
COCCOCCOC(C)C(=O)[O-].COCCOCCOC(C)C(=O)[O-].[Zn+2] (stereo not shown) [Zn(II) 2-{2-(2-methoxyethoxy)ethoxy}propionate]	0.62	–
COCCOCCOc1ccc(S(=O)(=O)[O-])cc1.COCCOCCOc1ccc(S(=O)(=O)[O-])cc1.[Cu+2] [Cu(II) 4-{2-(2-methoxyethoxy)ethoxy} benzene sulfonate]	0.68	–
COCCOCCOC(C)C(=O)[O-].COCCOCCOC(C)C(=O)[O-].[Cu+2] (stereo not shown) [Cu(II) 2-{2-(2-methoxyethoxy)ethoxy} propionate]	0.61	–
COCCOCCOCCOCC(=O)[O-].COCCOCCOCCOCC(=O)[O-].[Cu+2] [Cu(II) 2-{2-(2-methoxyethoxy)ethoxy}ethoxyacetate]	0.66	–
O=S(=O)([O-])[O-].[Li+].[Li+] [Li2SO4, reference compound]	–	inhibiting effect for a style-specific S RNase [1]: didn't show any positive inhibiting effect
O=S(=O)([O-])c1ccccc1.O=S(=O)([O-])c1ccccc1.[Cu+2] [Cu(II) Benzene sulfonate]	0.72	–
C[C@H](O)C(=O)O.C[C@H](O)C(=O)O.[Zn] [Zn(II) L-lactate]	0.73	–
COCCOCC(=O)[O-].COCCOCC(=O)[O-].[Cu+2] [Cu(II) 2-(2-methoxyethoxy) acetate]	–	self-pollination rate ([2]; concentration 0.01 mM): >10%; self-pollination rate ([2]; concentration 0.03 mM): >30%; self-pollination rate ([2]; concentration 0.10 mM): >50%; self-pollination rate ([2]; concentration 0.30 mM): >50%; self-pollination rate ([2]; concentration 1.0 mM): >50%
CCOCCOc1ccc(S(=O)(=O)[O-])cc1.CCOCCOc1ccc(S(=O)(=O)[O-])cc1.[Zn+2] [Zn(II) 4-(2-ethoxyethoxy) benzene sulfonate]	0.72	–
O=C[O-].O=C[O-].[Cu+2] [Cu(Il) Formate]	0.74	–
COCCOC(C)C(=O)[O-].COCCOC(C)C(=O)[O-].[Cu+2] (stereo not shown) [Cu(II) 2-(2-methoxyethoxy)propionate, Cu(II) 2-(2-methoxyethoxy) propionate]	0.64	–
CCOCCOCC(=O)[O-].CCOCCOCC(=O)[O-].[Zn+2] [Zn(II) 2-ethoxy ethoxy acetate]	–	self-pollination rate ([2]; concentration 0.01 mM): >5%; self-pollination rate ([2]; concentration 0.03 mM): >20%; self-pollination rate ([2]; concentration 0.10 mM): >50%; self-pollination rate ([2]; concentration 0.30 mM): >60%; self-pollination rate ([2]; concentration 1.0 mM): >60%
COCCOCCOCC(=O)[O-].COCCOCCOCC(=O)[O-].[Cu+2] [Cu(II) 2-{2-(2-methoxyethoxy)ethoxy} acetate]	–	self-pollination rate ([2]; concentration 0.01 mM): >10%; self-pollination rate ([2]; concentration 0.03 mM): >20%; self-pollination rate ([2]; concentration 0.10 mM): >50%; self-pollination rate ([2]; concentration 0.30 mM): >50%; self-pollination rate ([2]; concentration 1.0 mM): >50%
O=S(=O)([O-])[O-].[Ca+2] [CaSO4, reference compound]	–	inhibiting effect for a style-specific S RNase [1]: didn't show any positive inhibiting effect
CCOCCOc1ccc(S(=O)(=O)[O-])cc1.CCOCCOc1ccc(S(=O)(=O)[O-])cc1.[Cu+2] [Cu(II) 4-(2-ethoxyethoxy) benzene sulfonate]	0.72	–
CCCOCCOCCOCC(=O)[O-].CCCOCCOCCOCC(=O)[O-].[Zn+2] [Zn(II) 2-(2-propoxyethoxy)ethoxyacetate, Zn(II) 2-(2-propoxyethoxy) ethoxyacetate]	0.69	–
O=S(=O)([O-])[O-].[K+].[K+] [K2SO4, reference compound]	–	inhibiting effect for a style-specific S RNase [1]: didn't show any positive inhibiting effect
COCCOCCOCC(=O)[O-].COCCOCCOCC(=O)[O-].[Zn+2] [Zn(II) 2-{2-(2-methoxyethoxy)ethoxy} acetate]	–	self-pollination rate ([2]; concentration 0.01 mM): >10%; self-pollination rate ([2]; concentration 0.03 mM): >30%; self-pollination rate ([2]; concentration 0.10 mM): >50%; self-pollination rate ([2]; concentration 0.30 mM): >50%; self-pollination rate ([2]; concentration 1.0 mM): >50%
CCCOCCOCCOCC(=O)[O-].CCCOCCOCCOCC(=O)[O-].[Cu+2] [Cu(II) 2-(2-propoxyethoxy)ethoxyacetate, Cu(II) 2-(2-propoxyethoxy) ethoxyacetate]	0.67	–
COCCOC(C)C(=O)[O-].COCCOC(C)C(=O)[O-].[Zn+2] (stereo not shown) [Zn(II) 2-(2-methoxyethoxy)propionate, Zn(II) 2-(2-methoxyethoxy) propionate]	0.61	–
O=S(=O)([O-])[O-].[Na+].[Na+] [Na2SO4, reference compound]	–	inhibiting effect for a style-specific S RNase [1]: didn't show any positive inhibiting effect
Cc1ccc(S(=O)(=O)[O-])cc1.Cc1ccc(S(=O)(=O)[O-])cc1.[Zn+2] [Zn(II) p-toluene sulfonate]	0.72	–
O=C[O-].O=C[O-].[Zn+2] [Zn(II) Formate]	0.75	–
O=S(=O)([O-])c1ccccc1.O=S(=O)([O-])c1ccccc1.[Zn+2] [Zn(II) Benzene sulfonate]	0.74	–
Ce2SO4 [reference compound]	–	inhibiting effect for a style-specific S RNase [1]: didn't show any positive inhibiting effect
Cc1ccc(S(=O)(=O)[O-])cc1.Cc1ccc(S(=O)(=O)[O-])cc1.[Cu+2] [Cu(II) p-toluene sulfonate]	0.72	–

From patent US20050032646A1, “Agents for the regulation of gametophytic self-incompatibility and a control method for the breakdown of gametophytic self-incompatibility using the agents” (priority 2002, published 2005)
